Measured values published in patent US7829588B2, “Modulators of the PPAR-type receptors and pharmaceutical/cosmetic applications thereof” (Galderma Research & Development, priority 2003, dated 2010).

Assays:
PPARγ = target: T1, PPARγ (Homo sapiens, UniProt P37231); assay: Cross curve PPAR transactivation test (luciferase reporter, HeLN cells), PPARγ; type: cell-based; conditions: HeLN cells stably transfected with Gal-hPPARγ and ERE-βGlob-Luc-SV-Neo; Schild regression against reference agonist; read-out: PPAR γ Kd app
T1 construct: luciferase reporter plasmid ERE-βGlob-Luc-SV-Neo
T1 sequence (P37231 238-505 limits assumed): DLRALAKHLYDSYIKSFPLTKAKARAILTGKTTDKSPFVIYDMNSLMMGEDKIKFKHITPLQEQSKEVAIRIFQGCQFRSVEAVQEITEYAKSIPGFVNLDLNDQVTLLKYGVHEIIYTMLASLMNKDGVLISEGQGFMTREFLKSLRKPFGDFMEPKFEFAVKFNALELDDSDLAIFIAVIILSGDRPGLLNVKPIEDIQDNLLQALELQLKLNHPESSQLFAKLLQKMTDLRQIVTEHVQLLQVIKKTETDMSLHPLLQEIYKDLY
Description: (§1) The activation of receptors with an agonist (activator) in HeLN cells leads to the expression of a reporter gene, luciferase, which, in the presence of a substrate, generates light. The modulation of the receptors is measured as quantity of luminescence produced after incubating the cells in the presence of a reference agonist. The ligands will displace the agonist from its site. The measurement of the activity is performed by quantification of the light produced. This measurement makes it possible to determine the modulatory activity of the compounds according to the invention by determining the constant which is the affinity of the molecule for the receptor. […]
(§2) The various dilutions of the test products and of the reference ligand are added in an amount of 5 μl per well. […] After 5 minutes, the plates are read by the luminescence reader.
(§3) These cross curves make it possible to determine the AC50 values (concentrations at which 50% activation is observed) for the reference ligand at various concentrations of test product. These AC50 values are used to calculate the Schild regression by plotting a straight line corresponding to the Schild equation (“Quantitation in Receptor Pharmacology” Terry P. Kenakin, Receptors and Channels, 2001, 7, 371-385) which leads to Kd app values being obtained (in nM).

PPARα = target: T2, PPARα (Homo sapiens, UniProt Q07869); assay: Cross curve PPAR transactivation test (luciferase reporter, HeLN cells), PPARα; type: cell-based; conditions: HeLN cells stably transfected with Gal-hPPARα and ERE-βGlob-Luc-SV-Neo; Schild regression against reference agonist; n.a. means not active; read-out: PPAR α Kd app
T2 sequence (Q07869 200-468 limits assumed): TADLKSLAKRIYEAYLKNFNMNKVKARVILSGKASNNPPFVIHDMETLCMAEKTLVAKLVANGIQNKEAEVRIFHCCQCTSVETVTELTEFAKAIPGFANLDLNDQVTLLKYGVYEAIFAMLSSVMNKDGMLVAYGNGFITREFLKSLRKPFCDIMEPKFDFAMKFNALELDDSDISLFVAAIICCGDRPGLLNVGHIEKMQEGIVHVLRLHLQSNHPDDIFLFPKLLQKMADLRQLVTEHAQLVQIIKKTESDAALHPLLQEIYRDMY
Description: as §1, §2, §3

Row | Kd (PPARγ) | Kd (PPARα) | SMILES
1 | 60 nM | – | CCCCCCCOc1cc(Sc2nnc(-c3ccc(C(C)(C)C)cc3)n2C)ccc1CNc1ccc(CC(=O)OCC)cc1 [Example 1, Ethyl(4-{4-[5-(4-tert-butylphenyl)-4-methyl-4H-[1,2,4]-triazol-3-ylsulfanyl]-2-heptyloxybenzylamino}phenyl)acetate]
2 | 15 nM | 8000 nM | CCCCCCCOc1cc(Sc2nnc(-c3ccc(C(C)(C)C)cc3)n2C)ccc1CNc1ccc(CC(=O)O)cc1 [Example 2, (4-{4-[5-(4-tert-Butylphenyl)-4-methyl-4H-[1,2,4]-triazol-3-ylsulfanyl]-2-heptyloxybenzylamino}phenyl)acetic acid]
